{"source": "patent US7070917B1", "about": "“Determination of sperm concentration and viability for artificial insemination” (priority 2000, dated 2006)", "key": {"sperm cells": {"system": "sperm cells", "assay": "Toxicity of SYBR-14 staining to sperm cells (decrease in live sperm cells over time)", "format": "cell-based"}, "bull sperm": {"system": "bull sperm", "assay": "Flow cytometric (FACSCount) determination of sperm viability over staining time in bull ejaculates", "format": "cell-based", "details": "FACSCount blue laser (488 nm); SYBR-14 50 nM with PI 12 μM; replicates at 4 and 6 min staining, room temperature", "experimental": "A two-step dilution is necessary for the flow cytometric analyses. First, the sample is diluted 250× in a PBS medium containing 0.1% BSA, (NUNC Intermed Cat# 3478880, Lifetechnologies, Roskilde, Denmark), and second a 20 μl sample is transferred to a Sperm Count tube containing approximately 100,000 beads using reverse manual pipetting. The dyes were added to the Sperm Count tubes less than 12 hours before using the tubes in the analysing procedure. As mentioned above, two different flow cytometers were used, one being a FACSCount equipped with a green (543 nm) laser and the second being a FACSCount equipped with a blue (488 nm) laser.\nTo each Sperm Count tube to be analysed in the first FACSCount (543 nm), 2 μl of MPR71292 and 2 μl of EHD-2 were added to provide final concentrations of 100 nM and 5 μM, respectively.\nTo each Sperm Count tube to be analysed in the second FACSCount (488 nm), 5 μl of SYBR-14 and 5 μl of PI were added to provide for final concentrations of 50 nM and 12 μM, respectively.\nPrior to opening the Sperm Count tubes, the tubes were whirlmixed for 3 sec in an upside-down position and for 3 sec in a normal position. Whirlmixing were repeated for two sec after addition of the sperm and before each analysis. […] After 4 min, the first replicates were analysed simultaneously on the two flow cytometers and the second replicates were analysed after a 6 min staining period. […]"}}}
{"substance": "SYBR-14", "values": [{"measurement": "decrease in the amount of live sperm cells", "setting": "sperm cells; SYBR-14 below standard concentrations (25 to 75 nanomolar, about 50 nanomolar)", "value": "no decrease"}, {"measurement": "decrease in the amount of live sperm cells", "setting": "sperm cells; SYBR-14 concentration of 100 nM", "value": 0.6, "unit": "% pr minute"}, {"measurement": "toxicity to spermatozoa", "setting": "sperm cells; standard concentrations (100 nM), staining time 10 to 15 minutes", "value": "slightly toxic"}, {"measurement": "decrease in sperm viability over time", "setting": "bull sperm", "value": "−0.15±0.07", "unit": "%/min"}]}
